In patent US10160729B2, “Hsp70 modulators and methods for making and using the same” (Memorial Sloan Kettering Cancer Center, priority 2014, dated 2018):

How the values were obtained:
[1] = tested on: diffuse large B-cell lymphoma (DLBCL) cells; test: Growth inhibition (CellTiter-Glo) in DLBCL cells, including cells with induced resistance to PU-H71; format: cell-based, human; conditions: for Spectrum of sensitive DLBCLs: FIG. 1C, PU-H71-sensitive versus compound 32-sensitive DLBCL lines
Excerpt: (§1) Cell lines: MDA-MB-468 cells were obtained from the American Type Culture Collection. DLBCL cells were described in Cerchietti L C, et al. BCL6 repression of EP300 in human diffuse large B cell lymphoma cells provides a basis for rational combinatorial therapy. J Clin Invest. Dec. 1, 2010; 120(12): 4569-4582; and Cerchietti L C, et al. A purine scaffold Hsp90 inhibitor destabilizes BCL-6 and has specific antitumor activity in BCL-6-dependent B cell lymphomas. Nat Med. 2009 December; 15(12):1369-76. MDA-MB-468 cells were grown in DME/F12 with 10% FBS and 1% penicillin and streptomycin. OCI-LY1R cells were developed by continuous incubation of OCI-LY1 cells with suboptimal concentrations of PU-H71 (depicted below) with subsequent selection of resistant clones. OCI-LY1, OCI-LY1R and OCI-LY7 cells were cultured in IMDM supplemented with 20% FBS, 1% glutamax and 1% penicillin and streptomycin. OCI-LY3, FARAGE, HBL1, Karpas422, MD901, U2932, SU-DHL4, SU-DHL6, RCK8 and TMD8 cells were grown in RPMI with 10% FBS, 1% glutamax and 1% penicillin and streptomycin.
Growth inhibition: 5,000 cells per well were plated in black 96-well microtiter plates and treated next day with indicated compounds at 1/2 serial dilutions. The plate was incubated for 72h after which growth was measured using the CellTiter-Glo Luminescent Cell Viability Assay (Promega) according to manufacture's instructions. The percentage cell growth inhibition was calculated by comparing luminescence readings obtained from treated versus control cells, accounting for initial cell population. The luminescence signal in each well was measured using the Analyst GT microplate reader (Molecular Devices).

[2] = tested on: MDA-MB-468 triple negative breast cancer cells; test: Western blot of anti-apoptotic protein complexes; format: cell-based; conditions: FIG. 1A, MDA-MB-468 cells, 24 h
Excerpt: as §1
Western blot: Cells were plated and treated next day with indicated drug concentrations for 24h. […] The chemiluminescent signal was detected using the Enhanced Chemiluminescence Detection System (Amersham Biosciences) according to the manufacturer's instructions.

MOLM-13 cells = test: Caspase cleavage assay (Caspase3, 7 activation); format: cell-based; conditions: Homo sapiens, 16 h treatment, caspase substrate Z-DEVD-R110, read-out: c* Concentration at which 50% of the maximum signal was achieved (caspase activation)
Summary of the method: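 Cells (30,000/well, RPMI) treated 16 h with compound or DMSO in triplicate, then given buffer with 10 mM HEPES pH 7.5, 2 mM EDTA, 0.1% CHAPS and 25 μM Z-DEVD-R110. Fluorescence read once signal stabilized; results given as percentage increase in apoptotic cells versus DMSO-treated control.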

Compound	Spectrum of sensitive DLBCLs [1]	Activity in DLBCL cells with induced resistance to PU-H71 ([1]; FIG. 1B, DLBCL cells with induced resistance to Hsp90 inhibitor PU-H71)	Effect on Hsp70-regulated anti-apoptotic protein complexes [2]	EC50 (MOLM-13 cells) [nM]
CC(C)NCCCn1c(Sc2cc3c(cc2I)OCO3)nc2c(N)ncnc21 [PU-H71, reference compound]	does not overlap			
CN1CCN(c2ncc(Sc3ccc(N)nc3)c(OCc3ccccc3)n2)CC1 [compound 32, 5-((4-(Benzyloxy)-2-(4-methylpiperazin-1-yl)pyrimidin-5-yl)thio)pyridin-2-amine]	does not overlap	retains activity	effects reverted	200 to 400
